row,Compound,melting point
1,CCc1cc(-c2ccc(Cl)cc2)nc2c(C(=O)Nc3cccc(S(C)(=O)=O)c3)cnn12,230 to 232 °C
2,CC(=O)N(O)Cc1ccc(Oc2ccccn2)cc1,97 to 99 °C
3,O=C1Cc2cc(-c3cccc([N+](=O)[O-])c3)ccc2N1,269 °C
4,CCN(CC)c1ccc(C2OC(=O)c3cc(N(C)C)ccc32)c(C)c1 (stereo not drawn),123 to 125 °C
5,Cc1ccc(C)c(NC(=O)OC(C)(C)C)c1,103 to 104 °C
6,CC(C)COC(=O)N1CCC(c2ccc(COc3ccc(S(C)(=O)=O)cc3)nc2)CC1,114 to 117 °C
7,CN1C(=O)C(C)(C)CCc2cc(C(=O)O)ccc21,240 to 241 °C
8,COc1ccc(CC(=Nc2ccccc2)NC(=S)NCc2cccnc2)cc1,175 to 176 °C
9,CCOC(=O)c1nnc2ccc(C#N)cc2c1O,259 to 261 °C
10,O=C1C(=O)c2ccccc2C2=C1SCC1(CCN(CC(O)COc3ccccc3)CC1)O2 (stereo not drawn),174 to 176 °C
11,CCCCCCCCCCCCCCCCCC(=O)n1cc(F)c(=O)[nH]c1=O,101 °C
12,Cc1ncc(CO)c(NCc2ccc(-c3ccccc3-c3nnnn3C(c3ccccc3)(c3ccccc3)c3ccccc3)cc2)n1,112 to 114 °C
13,O=C(c1ccc2nonc2c1)N1C2CCC1COC2,139 to 140 °C
14,N#CCOc1ccccc1OCC#N,85 to 85.5 °C
15,C#CCN1C[C@H](OC(C)=O)CC1=O,46.5 to 47.5 °C
16,CC(C)Cn1c(N(C)C(=O)OC(C)(C)C)c(OCCCC(F)(F)F)c2cc(OCc3ccccc3)ccc2c1=O,117 to 118 °C
17,CC1(C)OC(=O)Nc2ccc(-c3coc(C=NO)c3)cc21,236 to 238 °C
18,CC(C)(C)OC(=O)NC(Cc1ccc(C=O)cc1)C(=O)N1CCCC1 (stereo not drawn),134 °C
19,CCOC(=O)c1ccc(C=CCN2CCc3nc(N)sc3CC2)cc1,111 to 115 °C
20,Cn1ccnc1C(=O)c1cc(C(C)(C)C)c(O)c(C(C)(C)C)c1,172 to 174 °C
21,Cn1nc(-c2ccccc2)c2c(C(F)(F)F)cc(OCC(=O)N[C@H]3CCc4ccccc43)nc21,203 to 205 °C
22,NCC(O)COc1ccc(-c2ccccc2)cc1 (stereo not drawn),138 to 147 °C
23,CCC1(c2cccc(OCc3ccccc3)c2)COC(C)(C)O1 (stereo not drawn),51 to 53 °C
24,O=C(Nc1ccc(CNc2nc(NC3CC3)nc3ccccc23)cc1)c1ccc(F)cc1,189 °C
25,O=C1c2c(O)cccc2C(O)(c2cccs2)c2cccc(O)c21,191 to 192 °C

row,Compound,melting point
1,CCc1cn(C2CC(O)C(CNC(=O)c3ccc4ccccc4c3)O2)c(=O)[nH]c1=O (stereo not drawn),242 to 244 °C
2,O=C(NC(Cc1ccc(OCc2ccccc2F)cc1)C(=O)O)c1cn2ccc(-c3ccc(Cl)cc3)cc2n1 (stereo not drawn),250 to 252 °C
3,CN(CCCl)C(=O)Nc1ccc([N+](=O)[O-])cc1C(F)(F)F,86 to 87 °C
4,O=C(O)C#CC(=O)c1ccc2c(c1)OCO2,122 to 124 °C
5,COC(=O)c1sc2c(c1C)c1ccccc1n2C,166 to 167 °C
6,Cc1ccc(-c2cc(C(F)(F)F)nn2-c2ccc(S(=O)(=O)Cl)cc2)cc1,97 to 98 °C
7,CS(=O)(=O)N1CCN(Cc2ccccc2)CC1,115 to 116 °C
8,O=C(NC1CC2CC(N3CCN(c4ccccc4)CC3)CC2C1)c1ccccc1 (stereo not drawn),211 to 212 °C
9,O=C(O)c1ccccc1C(=O)NNC(=S)Nc1ccccc1,149 to 151 °C
10,CC(C)P1(=O)c2ccccc2CN1c1ccc(Cl)cc1 (stereo not drawn),172 to 174 °C
11,CCCCCCCCCCCCCCOc1cc(OCCCCCCc2cccc(OCc3ccccc3)c2OCc2ccccc2)cc(C(=O)O)c1,75 to 77 °C
12,O=S1(=O)Oc2ccccc2Nc2ncccc21,208 to 209 °C
13,CC(C)OC(=O)C1=C(O)c2ccccc2S(=O)(=O)N1C,102 to 103 °C
14,Cc1cc(C)cc(Oc2ccc(Oc3cc(C)cc(C)c3)cc2)c1,103 °C
15,Cc1ccn(-c2nc(Cl)c([N+](=O)[O-])s2)n1,153 °C
16,Nc1cccc2cccc(S)c12,69 to 72 °C
17,Cc1oc(-c2ccco2)nc1COc1ccc(COc2nn(Cc3ccc(OCc4nc(-c5ccco5)oc4C)cc3)cc2C(=O)O)cc1,144 to 145 °C
18,OCc1ccc(-c2cc3c(Nc4ccc(F)c(Cl)c4)ncnc3[nH]2)cc1,> 300 °C
19,ON=C1CCN(CC2c3ccccc3CCc3ccccc32)CC1,199 to 202 °C
20,COc1c(N2CC(C)C(N)C(C)(C)C2)c(F)c(N)c2c(=O)c(C(=O)O)cn(C3CC3)c12 (stereo not drawn),248 to 252 °C
21,COC(=O)C(O)=CC(=O)N(Cc1ccc(F)cc1)Cc1ccc(F)cc1,118 to 120 °C
22,CC1(c2ccccc2)Cc2cc(OCC(=O)O)c(Cl)c(Cl)c2C1O (stereo not drawn),160 to 162 °C
23,N#CC1CC2(c3ccccc3)SC13c1ccccc1CCN3C2=O (stereo not drawn),225 to 226 °C
24,Oc1ccc2nc(-c3ccc(O)c(Cl)c3)oc2c1,254 to 256 °C
25,CC(C)(C(=O)O)C1CCN(Cc2ccccc2)CC1,195 °C

row,Compound,melting point
1,CCCCCNC(=S)NC(Cc1ccc(OC)cc1)=Nc1ccccc1,125 to 126 °C
2,CN1CCN(S(=O)(=O)c2ccc(N3CCC(NC[C@H](O)c4ccc(O)c(NS(C)(=O)=O)c4)CC3)cc2)CC1,89 to 91 °C
3,COc1ccc2c(c1)CN(C(=O)OCc1ccccc1)CC(=O)N2,138 °C
4,CCc1c(C(=O)O)c(C(F)F)nc(C(F)(F)F)c1C(=O)O,237 to 239 °C
5,COC(=O)Nc1nc2cc(S(=O)CC(C)C)ccc2[nH]1 (stereo not drawn),198 to 201 °C
6,O=C(O)CCC(Cc1ccccc1)(C(=O)C=Cc1ccc(Cl)cc1)c1ccccc1 (stereo not drawn),160 to 170 °C
7,O=C(O)c1[nH]c2cc(Cl)cc(Cl)c2c1N(Cc1ccccc1)C(=O)c1ccccc1,266 to 267 °C
8,CC(C)(C)OC(=O)N[C@@H](CCC(=O)Oc1ccc(-c2nn(C3CCCC3)c3c(F)cccc23)cc1)C(=O)OC(C)(C)C,92 to 93 °C
9,C[C@H]([C@](O)(Cn1cncn1)c1ccc(F)cc1F)S(=O)(=O)N1CCN(c2ncccn2)CC1,101 to 108 °C
10,CC(=O)OC1CSC(Oc2cnccc2-c2c(C)noc2C)C(OC(C)=O)C1OC(C)=O (stereo not drawn),150 to 155 °C
11,c1ccc(COc2ccc(-n3nnnc3C3CC3)cc2)cc1,118 °C
12,CS(=O)(=O)c1ccc(C2=C(c3ccccc3)C(=O)C3(CCCCC3)O2)cc1,126 to 127 °C
13,Nc1cccc(C(=O)CN2CCN(c3ccc(CO)c(Cl)c3)CC2)c1,174 to 180 °C
14,FC(F)(F)c1nc(Cl)c2cc(I)ccc2n1,145 to 146 °C
15,CCOC(=O)c1cc2cc3c(cc2oc1=O)OCO3,200 to 201 °C
16,CCOc1ccc(C(=O)Nc2ccccc2)cc1N(c1ccccc1)C(F)(F)F,184 to 185 °C
17,Cc1ccc(S(=O)(=O)Oc2ccc(Cl)c3c2C(=O)c2cnccc2C3=O)cc1,193 to 195 °C
18,CCOc1cccc(S(=O)(=O)c2ccc(C)nc2Nc2c(C)cc(C)cc2C)c1,96 to 97 °C
19,CCOC(=O)Nc1ccc(OCc2nc3ccccc3s2)cc1,149 to 150 °C
20,COc1ccc(C(CC2=NOC(=O)C2)c2ccccc2)cc1OC1CCCC1 (stereo not drawn),137 to 139 °C
21,NS(=O)(=O)c1ccc(-c2cccc(-c3nc(-c4ccc(C(F)(F)F)nc4)cc(C(F)(F)F)n3)c2)s1,250 °C
22,N=C(NCc1ccc(Cl)cc1)Nc1cccc(C(F)(F)F)c1,103 to 105 °C
23,CC(C)=C1C(=O)N(c2ccc(O)cc2)C(=O)/C1=C(\C)c1cc(C)oc1C,206 to 208 °C
24,O=[N+]([O-])N=C1NC(O)CN1Cc1ccc(Cl)nc1 (stereo not drawn),170 °C
25,Cc1ccc(C)c(-c2cc(C#N)c(NC(=O)[C@@H]3C[C@@H]4CC[C@H]3C4)s2)c1,168 to 169 °C

row,Compound,melting point
1,Clc1ccc(N2CCN(CCC3OCCc4cc(Br)ccc43)CC2)cc1 (stereo not drawn),94 to 96 °C
2,COC(=O)c1ccc(C(=O)Nc2ccc3c(c2)C(C)(C)CCC3(C)C)nc1,176 to 177 °C
3,COC(=O)CCC1CCCCCCCCCCC1=O (stereo not drawn),33 to 35 °C
4,O=S(=O)(COc1ccc(Cl)cc1)c1ccc(Cl)cc1,114 °C
5,CC(=O)OC1CSC(Sc2ccc(C(F)(F)F)cc2)C(OC(C)=O)C1OC(C)=O (stereo not drawn),160 °C
6,CCc1n[nH]c(CC)c1CCCCCCOc1ccc(OC)cc1Cl,91 to 93 °C
7,CC(=O)NCCCC(=O)c1ccccc1,92 to 95 °C
8,Cc1ccccc1C(=O)Nc1ccc(C(=O)N2CCCC(NC(=O)Nc3ccccc3)c3ccccc32)cc1 (stereo not drawn),269 to 271 °C
9,CN(C)c1ccc(C=CC(=O)C=Cc2ccc(N(C)C)cc2)cc1,174 to 176 °C
10,CC12Nc3ccccc3N1C(=O)c1ccccc12 (stereo not drawn),182 °C
11,O=C(NCc1ccccc1)N1C(=O)[C@H](O)[C@@H]1c1ccccc1,165 to 168 °C
12,O=C(O)CCc1cccc2c1NC(=O)CC2,164 to 165 °C
13,CN(C(CCN1C(=O)c2ccccc2C1=O)C(=O)NO)S(=O)(=O)c1ccc(Oc2ccc(F)cc2)cc1 (stereo not drawn),100 to 101 °C
14,COc1ccccc1-c1cc(N2CCN(Cc3ccc(C)cc3)CC2)n2ccc(=O)ccc12,186 °C
15,CON=C1CN(c2c(F)cc3c(=O)c(C(=O)O)cn(C4CC4)c3c2Cl)CC12CNC2,220 to 221 °C
16,CN1CCN(C(=O)c2ccc3c([N+](=O)[O-])c(O)c(O)cc3c2)CC1,> 360 °C
17,COc1ccccc1CNc1ccc2cc(Nc3nc(C)cc(C)n3)ccc2n1,158 °C
18,CC(=O)c1ccc(-c2ccc3c(ccn3Cc3ccccc3)c2)cc1,134 to 135 °C
19,CNc1c(C)cc(N)c([N+](=O)[O-])c1C,57 °C
20,CC(=O)CCCCOCCCc1ccc(N2CCCC2)cc1,30 to 31 °C
21,CCOC1CC(n2cc(CC)c(=O)[nH]c2=O)OC1CNC(=O)Cc1c(Cl)cccc1Cl (stereo not drawn),249 to 250 °C
22,O=c1cc(OCc2cccc(Cl)c2)ccn1Cc1ccccc1,95.5 to 95.7 °C
23,CCCc1nn(-c2ccc(C(F)(F)F)cn2)cc1CCCOc1ccc(F)c(CC(=O)O)c1,111 to 112 °C

# Source: a melting point compilation (Tetko et al.; mined from patent text by program, amines drawn as free bases though some values may be those of a salt)
